1 molecule from US4002530A, “6-Aminopenicillanic acid derivative” (Recherche et Industrie Therapeutiques (R.I.T.), priority 1975, dated 1977) can be followed below.

In one series the test system is Proteus mirabilis. Briefly: broth dilution test, minimum inhibitory concentration. It is filed as cell-based. The note with it: 20 h, read-out: Minimum Inhibitory concentration.
Another series has as its system Alcaligenes faecalis. The description is as above. The conditions noted are these: about 20 hours at 35° C, tested as monoammonium salt. It is filed as cell-based.
A further series deals with Brucella abortus. Briefly: microbe, parasite or virus in culture. The format is cell-based. The conditions noted are these: 20 h, read-out: Minimum Inhibitory concentration.
The subject of another series is Salmonella typhi. Briefly: broth dilution test, minimum inhibitory concentration. It is filed as cell-based. The note with it: Salmonella enterica, 20 h, read-out: Minimum Inhibitory concentration.
Series [1] can be described thus: stability in water solution. The format is physicochemical. The note with it: 4° C, not more than 7 days.
In a further series the test system is Proteus morganii. Briefly: broth dilution test, minimum inhibitory concentration. The format is cell-based. The note with it: Morganella morganii, about 20 hours at 35° C, tested as monoammonium salt. In general terms: In broth dilution the organism is exposed to a series of concentrations in liquid medium.
The test system of a further series is E. coli Pen. resistant. Described as above. The note with it: Escherichia coli, penicillin resistant, about 20 hours at 35° C, tested as monoammonium salt. It is filed as cell-based.
In a further series the test system is Klebsiella pneumoniae. Described as above. The format is cell-based. The conditions noted are these: about 20 hours at 35° C, tested as monoammonium salt.
A further series concerns Bacillus subtilis. Described as above. The format is cell-based. The conditions noted are these: about 20 hours at 35° C, tested as monoammonium salt.
The test system of series [2] is Staphylococcal preparation of β-lactamase. Briefly: destruction by Staphylococcal preparation of β-lactamase (Penase Leo). The format is biochemical.
For a further series, the system named is Escherichia coli. Briefly: broth dilution test, minimum inhibitory concentration. It is filed as cell-based. The conditions noted are these: 20 h, read-out: Minimum Inhibitory concentration.
The next series has as its system Staphylococcus aureus. Described as above. It is filed as cell-based. The conditions noted are these: about 20 hours at 35° C, tested as monoammonium salt. The protocol:
(§1) Antibiotic RIT D-2214 has been tested in form of the mono ammonium salt in position 3 of the penam nucleus and, for that reason, is herein below charcterized as this monoammonium salt.
(§2) The inhibitory levels were determined by the broth dilution test. A series of tubes containing varied concentrations of the monoammonium salt of antibiotic RIT D-2214 were inoculated with the test organism to determine the minimum concentration of the ammonium salt of antibiotic RIT D-2214 in mcg/ml. in the broth substrate which inhibited organism growth for a period of about twenty hours at 35° C.

Another series relates to Shigella sonnei. Described as above. It is filed as cell-based. The note with it: about 20 hours at 35° C, tested as monoammonium salt. The procedure:
as §1, §2

Values after ≈ are worked out from the molar mass of the structure shown.

For `CC1(C)S[C@@H]2[C@H](NC(=O)CSC[C@@H](N)C(=O)O)C(=O)N2[C@H]1C(=O)O` [RIT D-2214, 6-(D)-{[(2-amino-2-carboxy)-ethylthio]-acetamido}-penicillanic acid], the MIC in the series with Proteus mirabilis is 1.25 µg/mL (≈ 3.31 µM); in the series with Alcaligenes faecalis, 1.6 µg/mL; in the series on Brucella abortus, 20 µg/mL (≈ 53 µM); in the series with Salmonella typhi, 0.6 µg/mL (≈ 1.59 µM); in the series on Proteus morganii, 40 µg/mL; in the series with E. coli Pen. resistant, 80 µg/mL. The MIC with Klebsiella pneumoniae was 80 µg/mL; with Bacillus subtilis, 0.3 µg/mL; in the series on Escherichia coli it was 1.25 µg/mL (≈ 3.31 µM); in the series with Staphylococcus aureus it was 1.25 µg/mL; in the series with Shigella sonnei, 20 µg/mL. For the same molecule, the “stability in water solution” value in series [1] is on record as “relatively stable”. For the same molecule, the “destruction by β-lactamase” value in series [2] is listed as “rapidly destroyed”.
